# Experimental data published in article PMC6784244 (Toxins, 2019).
# Values joined by “and” are separate entries in the source; they are usually repeats but may differ in a detail not shown here. Equal values may be shown once.
# What was measured:
# [1] = tested on: Candida albicans (DSMZ 10697); conditions: DSMZ 10697, 24 h, pH 7
# [2] = parameters: species or system B. subtilis; conditions: lipid monolayer on PBS pH 7.4, peptide 1 µM, extrapolated to delta pressure 0; -- = absence of interaction
# Procedure: (§1) Peptide–lipid interaction was evaluated using reconstituted lipid monolayer at the air–water interface as previously described. Pure prokaryotic and eukaryotic lipids used were: POPC (1-palmitoyl-2-oleoyl-glycero-3-phosphocholine), POPE (1-palmitoyl-2-oleoyl-sn-glycero-3-phosphoethanolamine), POPG (1-palmitoyl-2-oleoyl-sn-glycero-3-phospho-(1’-rac-glycerol), and cardiolipin, all from Avanti Polar Lipid (Alabama, USA). LTA (Lipoteichoic acid from B. subtilis) was obtained from Invivogen SAS (Toulouse, France). Pure lipids were reconstituted in chloroform:methanol (2:1, v:v) at 1 mg/mL and stored at −20 °C under nitrogen. The interaction and insertion of the ENN and BEA into lipids were evaluated through the measurement of their critical pressure of insertion as previously described. Briefly, lipids were spread using a 50 µL Hamilton’s syringe at the surface of 800 µL of sterile PBS creating a lipid monolayer at the air–water interface. Lipids were added until the surface pressure reached the desired value. After 5–10 min of incubation allowing evaporation of the solvent and stabilization of the initial surface pressure, 8 µL of ENN or BEA diluted in sterile PBS at 100 µM were injected into the 800 µL sub-phase of PBS under the lipid monolayer (pH 7.4, volume 800 µL) using a 10 µL Hamilton syringe giving a final concentration of peptides of 1 µM, preliminary experiments having shown that this concentration gave optimal insertion. The variation of the surface pressure caused by peptide injection was then continuously monitored using a fully automated microtensiometer (µTROUGH SX, Kibron Inc., Helsinki, Finland) until reaching equilibrium (maximal surface pressure increase being usually obtained after 15–25 min). The critical pressure of insertion of each peptide was determined by changing the initial pressure of lipid monolayer (from 10 and 30 mN/m) and measuring the variation of pressure caused by the insertion of the peptide. The critical pressure of insertion of each peptide in a particular lipid was determined graphically and calculated as the theoretical value of initial pressure of lipid monolayer not permissive to peptide insertion, i.e., causing a variation of pressure equal to 0 mN/m.
# [3] = tested on: Penicillium verrucosum (DSMZ 12639); conditions: DSMZ 12639, pH 7
# [4] = tested on: Helicobacter pylori (ATCC 43504)
# [5] = tested on: Fusarium graminearum (DSMZ 1095); conditions: DSMZ 1095, pH 7
# [6] = tested on: Escherichia coli (ATCC 8739)
# [7] = tested on: Mycobacterium smegmatis (mc2155, ATCC 700084); conditions: mc2155, 72 h
# [8] = lipid monolayer on PBS pH 7.4, peptide 1 µM, extrapolated to delta pressure 0; -- = absence of interaction
# Procedure: as §1
# [9] = tested on: Acinetobacter baumannii (CIP 110431)
# [10] = tested on: F. oxysporum (DSMZ 62316); conditions: DSMZ 62316, pH 7
# [11] = tested on: Nisin-resistant B. subtilis (DSMZ 347)
# [12] = tested on: Aspergillus flavus (DSMZ 1959); conditions: DSMZ 1959, pH 7
# [13] = tested on: A. niger (ATCC 9142); conditions: ATCC 9142, pH 7
# [14] = tested on: Stachybotrys chartarum (DSMZ 2144); conditions: DSMZ 2144, pH 7
# [15] = tested on: human erythrocytes; conditions: pH 7.4
# [16] = tested on: HEK (human normal epidermal keratinocytes); conditions: 48 h
# [17] = tested on: Methicillin-resistant S. aureus strain MRSA USA300
# [18] = tested on: Vancomycin-resistant Enterococcus faecalis (DSMZ 13591)
# [19] = tested on: A. ochraceus (DSMZ 824); conditions: DSMZ 824, pH 7
# [20] = tested on: F. verticillioides (DSMZ 62264); conditions: DSMZ 62264, pH 7
# [21] = lipid monolayer at air-water interface on PBS pH 7.4, peptide 1 µM, initial pressure 10-30 mN/m, extrapolated to delta pressure 0
# Procedure: as §1
# [22] = tested on: C. perfringens; format: cell-based, Clostridium perfringens
# [23] = tested on: Staphylococcus aureus (ATCC CRM-6538P)
# [24] = tested on: C. perfringens; format: cell-based, Clostridium perfringens; remark: listed apart in the source
# [25] = tested on: Clostridium perfringens (ATCC 13124)
Compound,"MIC, C. albicans [1] [µM]","critical pressure of insertion, LTA [2] [mN/m]","MIC, P. verrucosum [3] [µM]","MIC, H. pylori [4] [µM]","MIC, F. graminearum [5] [µM]","MIC, E. coli [6] [µM]","MIC, M. smegmatis [7] [µM]","critical pressure of insertion, POPG [8] [mN/m]","MIC, A. baumannii [9] [µM]","MIC, F. oxysporum [10] [µM]","MIC, B. subtilis NR [11] [µM]","MIC, A. flavus [12] [µM]","MIC, A. niger [13] [µM]","MIC, S. chartarum [14] [µM]","HC50 (dose causing 50% hemolysis), Erythrocytes [15] [µM]",IC50 [16] [µM],"MIC, S. aureus MRSA [17] [µM]","MIC, E. faecalis [18] [µM]","MIC, A. ochraceus [19] [µM]","MIC, F. verticillioides [20] [µM]",other results
CC[C@H](C)[C@H]1C(=O)O[C@H](C(C)C)C(=O)N(C)[C@@H]([C@@H](C)CC)C(=O)O[C@H](C(C)C)C(=O)N(C)[C@@H](C(C)C)C(=O)O[C@H](C(C)C)C(=O)N1C [ENN A1],1.5,53.71,>100,>100,50,>100,3.12,41.10,>100,>100,25,>100,>100,>100,162.7 ± 22.8,2.3 ± 0.1,12.5 to 25,6.25,>100,>100,"critical pressure of insertion, POPC [21]: 38.06 mN/m; critical pressure of insertion, POPE [21]: 34.38 mN/m; membrane depolarization at 100 µM [22]: 97.4 ± 5.3%; membrane depolarization at four times their MIC [22]: 75.3 ± 2.0%; MIC, S. aureus [23]: 12.5 to 25 µM; Known/possible target [24]: RNA biosynthesis; Observed Morphology [24]: • No cell elongation • DNA condensed in one filament crossing the cells"
CC[C@H](C)[C@H]1C(=O)O[C@H](C(C)C)C(=O)N(C)[C@@H]([C@@H](C)CC)C(=O)O[C@H](C(C)C)C(=O)N(C)[C@@H]([C@@H](C)CC)C(=O)O[C@H](C(C)C)C(=O)N1C [ENN A],1.5,56.1,>100,>100,25,>100,6.25,44.75,>100,>100,6.25 to 12.5,>100,>100,>100,68.7,2 ± 0.1,6.25 to 12.5,3.12,>100,>100,"critical pressure of insertion, POPC [21]: 40.28 mN/m; critical pressure of insertion, POPE [21]: 38.12 mN/m; membrane depolarization at 100 µM [22]: 108.9 ± 7.3%; membrane depolarization at four times their MIC [22]: 80.8 ± 3.2%; MIC, S. aureus [23]: 6.25 to 12.5 µM; Known/possible target [24]: RNA biosynthesis; Observed Morphology [24]: • Some cell elongation • DNA condensed in one filament crossing the cells; MIC, C. perfringens [25]: 3.12 µM"
CC[C@H](C)[C@H]1C(=O)O[C@H](C(C)C)C(=O)N(C)[C@@H](C(C)C)C(=O)O[C@H](C(C)C)C(=O)N(C)[C@@H](C(C)C)C(=O)O[C@H](C(C)C)C(=O)N1C [ENN B1],3.12,43.62,>100,>100,25,>100,6.25,41.71,>100,>100,50,>100,>100,>100,356.4 ± 59.3,3.3 ± 0.5,25,12.5,>100,>100,"critical pressure of insertion, POPC [21]: 36.19 mN/m; critical pressure of insertion, POPE [21]: 31.87 mN/m; membrane depolarization at 100 µM [22]: 97.6 ± 9.1%; membrane depolarization at four times their MIC [22]: 68.0 ± 4.3%; membrane depolarization at their MIC [22]: 47.4 ± 4.6% and 30–40%; MIC, S. aureus [23]: 25 µM; Known/possible target [24]: Protein biosynthesis; Observed Morphology [24]: • Some cell elongation (1.5–2 times compared to control) • DNA condensed in 1–4 circles per cells; MIC, C. perfringens [25]: 6.25 µM"
CC(C)[C@H]1C(=O)O[C@H](C(C)C)C(=O)N(C)[C@@H](C(C)C)C(=O)O[C@H](C(C)C)C(=O)N(C)[C@@H](C(C)C)C(=O)O[C@H](C(C)C)C(=O)N1C [ENN B],6.25,38.9,>100,>100,>100,>100,100,34.67,>100,>100,>100,>100,>100,>100,534.5,54.2 ± 35.3,>100,>100,>100,>100,"critical pressure of insertion, POPC [21]: 32.92 mN/m; critical pressure of insertion, POPE [21]: 30.15 mN/m; membrane depolarization at 100 µM [22]: 44.9 ± 8.7%; membrane depolarization at four times their MIC [22]: 44.2 ±1.8%; membrane depolarization at their MIC [22]: 36.4 ± 3.8% and 30–40%; MIC, S. aureus [23]: >100 µM; Known/possible target [24]: Protein biosynthesis; Observed Morphology [24]: • Some cell elongation (1.5–2 times compared to control) • DNA condensed in 1–4 circles per cells; MIC, C. perfringens [25]: 12.5 µM"
